Assay results reported in patent US20210317092A1 (BAYER PHARMA AKTIENGESELLSCHAFT, priority 2016, published 2021).
Read-outs that look alike come from different tables or passages of the source.

Key:
[1] = biological target: T1, human Bradykinin B1 receptor (Homo sapiens, UniProt P46663); assay: Calcium flux Assay (FLIPR) with recombinant CHO-K1 cells expressing human Bradykinin B1 receptor, in presence (hB1 IC50) or absence (hB1 free IC50) of 0.1% BSA; format: cell-based
T1 construct: host or cells: CHO-K1
T1 sequence (P46663 1-353): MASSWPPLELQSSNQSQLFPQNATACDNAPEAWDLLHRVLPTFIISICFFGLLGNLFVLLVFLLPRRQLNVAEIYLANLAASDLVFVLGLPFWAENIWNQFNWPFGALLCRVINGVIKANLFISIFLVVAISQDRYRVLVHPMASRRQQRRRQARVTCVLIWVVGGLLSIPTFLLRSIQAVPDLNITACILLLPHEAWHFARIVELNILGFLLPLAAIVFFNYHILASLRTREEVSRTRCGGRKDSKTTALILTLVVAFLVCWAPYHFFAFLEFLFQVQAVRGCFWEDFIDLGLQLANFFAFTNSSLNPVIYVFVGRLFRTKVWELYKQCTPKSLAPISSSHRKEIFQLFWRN

[2] = biological target: T2, native human Bradykinin B1 receptor (Homo sapiens, UniProt P46663); assay: Calcium flux Assay (FLIPR) with human fibroblasts expressing Bradykinin B1 receptor (hB1 IMR-90); format: cell-based; settings: IMR-90 human fibroblasts expressing native Bradykinin B1 receptor
T2 construct: which express native human Bradykinin B1 receptor after induction with human IL-10; Coriell Institute; host or cells: IMR-90 human foetal lung fibroblasts, cytokine-induced
T2 sequence (P46663 1-353): T1 sequence (P46663 1-353)
Protocol: Calcium flux Assay (FLIPR) with human fibroblasts expressing Bradykinin B1 receptor (hB1 IMR-90)
The Calcium flux Assay was carried out utilising IMR-90 human foetal lung fibroblasts (American Type Culture Collection, Rockville, Md.; and Coriell Institute, Camden, N.J.), which express native human Bradykinin B1 receptor after induction with human […].
The fibroblasts were cultured in complete growth media comprised of Dulbecco's modified Eagle's medium (DMEM; Sigma) containing 10% foetal bovine serum, 4 mM L-glutamine, and 1% nonessential amino acids. The cells were maintained in a humidified atmosphere with 5% CO2 at 37° C. and were sub-cultured at a ratio of 1:3, every other day.
For the assay, IMR-90 fibroblasts were harvested using TrypLE Express (GIBCO/Invitrogen) and seeded into 384-well plates (Corning Cellbinding Surface, Cat. 3683) at a density of 15000 cells/well. The following day, cells were treated with 0.35 ng/mL human […] in 10% FBS/MEM for 3h to up-regulate Bradykinin B1 receptor. Induced cells were loaded with fluorescent calcium indicator by incubation with 2.5 μM Fluo-4/AM (Invitrogen) at 37° C., 5% CO2 for 2 h in the presence of 2.5 mM probenecid in 1% FBS/MEM. Extracellular dye was removed by washing with assay buffer (2.5 mM probenecid and 0.1% BSA in 20 mM HEPES/HBSS without bicarbonate or phenol red, pH 7.5). Compound examples were assayed at 8 concentrations in triplicate. After addition of compound examples to the cell plate and incubation for 30 min at 28° C., the addition of Bradykinin B1 agonist Lys-(Des-Arg)-Bradykinin (Bachem, Brackley) at a final concentration of EC90 was carried out on the FLIPR instrument while continuously monitoring Ca^2+-dependent fluorescence at 538 nm. A peptide antagonist Lys-(Des-Arg-Leu)-Bradykinin (Bachem, Brackley) at 20 µM was used to determine the full inhibition as control. IC50 values were determined by the same way described for the FLIPR assay with recombinant cells.

[3] = in presence of 0.1% BSA, read-out: hB1 IC50
[4] = in absence of 0.1% BSA, read-out: hB1 free IC50

Row | SMILES | IC50 [1, 3] | IC50 [2] | IC50 [1, 4]
1 | O=C(Nc1ccc(-c2ccc(C(F)(F)F)nc2)c(-c2nnn[nH]2)c1)C1(c2cccc(Cl)c2)CC1 [Example 135, 1-(3-chlorophenyl)-N-{3-(1H-tetrazol-5-yl)-4-[6-(trifluoromethyl)pyridin-3-yl]phenyl} cyclopropane-carboxamide] | 516 nM | 91.8 nM | 58.7 nM
2 | O=C(Nc1ccc(-c2ccc(C(F)(F)F)nc2)c(-c2nnn[nH]2)c1)C1(c2cccc(Cl)c2F)CC1 [Example 138, 1-(3-chloro-2-fluorophenyl)-N-{3-(1H-tetrazol-5-yl)-4-[6-(trifluoromethyl)pyridin-3-yl]phenyl} cyclopropane-carboxamide] |  | 102 nM | 51.3 nM
3 | O=C(Nc1ccc(-c2ccc(C(F)(F)F)nc2)c(-c2nnn[nH]2)c1)C1(c2cc(F)ccc2F)CC1 [Example 141, 1-(2,5-difluorophenyl)-N-{3-(1H-tetrazol-5-yl)-4-[6-(trifluoromethyl)pyridin-3-yl]phenyl} cyclopropane-carboxamide] |  | 141 nM | 224 nM
4 | O=C(Nc1ccc(-c2ccc(C(F)(F)F)nc2)c(-c2nnn[nH]2)c1)C1(c2cccc(C(F)(F)F)c2)CC1 [Example 144, N-{3-(1H-tetrazol-5-yl)-4-[6-(trifluoromethyl)pyridin-3-yl]phenyl}-1-[3-(trifluoromethyl)phenyl] cyclopropane-carboxamide] |  | 289 nM | 300 nM

Other lines, results leading:

Row | IC50 [1, 3] | IC50 [2] | IC50 [1, 4] | SMILES
5 | 21.9 nM | 13.1 nM |  | COCc1ccc(-c2ccc(NC(=O)C3(c4ccc(C(F)(F)F)cc4)CC3)cc2-c2nnn[nH]2)cn1 [Example 126, N-{4-[6-(methoxymethyl)pyridin-3-yl]-3-(1H-tetrazol-5-yl)phenyl}-1-[4-(trifluoromethyl)phenyl] cyclopropane-carboxamide]
6 | 90.9 nM | 27.9 nM | 88.6 nM | COCc1ccc(-c2ccc(NC(=O)C3(c4ccc(F)cc4F)CC3)cc2-c2nnn[nH]2)cn1 [Example 127, 1-(2,4-difluorophenyl)-N-{4-[6-(methoxymethyl)pyridin-3-yl]-3-(1H-tetrazol-5-yl)phenyl} cyclopropane-carboxamide]
7 | 137 nM | 63.3 nM | 2.68 nM | O=C(Nc1ccc(-c2ccc(C(F)(F)F)cc2)c(-c2nnn[nH]2)c1)C1(c2cccc(Cl)c2)CC1 [Example 128, 1-(3-chlorophenyl)-N-[2-(1H-tetrazol-5-yl)-4′-(trifluoromethyl)biphenyl-4-yl]cyclopropane carboxamide]
8 |  | 15.7 nM | 165 nM | O=C(Nc1ccc(-c2ccc(C(F)(F)F)nc2)c(-c2nnn[nH]2)c1)C1(c2ccc(OC(F)(F)F)cc2)CC1 [Example 136, N-{3-(1H-tetrazol-5-yl)-4-[6-(trifluoromethyl)pyridin-3-yl]phenyl}-1-[4-(trifluoromethoxy)phenyl] cyclopropane-carboxamide]
9 |  | 43.9 nM | 17.1 nM | O=C(Nc1ccc(-c2ccc(C(F)(F)F)nc2)c(-c2nnn[nH]2)c1)C1(c2ccc(Cl)c(F)c2)CC1 [Example 137, 1-(4-Chloro-3-fluorophenyl)-N-{3-(1H-tetrazol-5-yl)-4-[6-(trifluoromethyl)pyridin-3-yl]phenyl} cyclopropane-carboxamide]
10 |  | 91 nM | 22.6 nM | O=C(Nc1ccc(-c2ccc(C(F)(F)F)nc2)c(-c2nnn[nH]2)c1)C1(c2ccc(F)c(Cl)c2)CC1 [Example 139, 1-(3-chloro-4-fluorophenyl)-N-{3-(1H-tetrazol-5-yl)-4-[6-(trifluoromethyl)pyridin-3-yl]phenyl} cyclopropane-carboxamide]
11 |  | 85.1 nM | 42.1 nM | O=C(Nc1ccc(-c2ccc(C(F)(F)F)nc2)c(-c2nnn[nH]2)c1)C1(c2ccc(C(F)(F)F)cc2)CC1 [Example 140, N-{3-(1H-tetrazol-5-yl)-4-[6-(trifluoromethyl)pyridin-3-yl]phenyl}-1-[4-(trifluoromethyl)phenyl] cyclopropane-carboxamide]
